Source: patent US20080221163A1, “Selective Estrogen Receptor Modulators” (priority 2005, published 2008)
Where a name gives a salt, the structure may show the parent alone. Read-outs that look alike come from different tables or passages of the source.

Columns and labels:
[1] = tested on: Ishikawa human endometrial tumor cells; assay: Ishikawa Cell Proliferation Assay (alkaline phosphatase readout; agonist and antagonist modes); type: cell-based; settings: for stimulation compared with tamoxifen: compound alone
Method: Ishikawa Cell Proliferation Assay: This assay measures cell proliferation (using an alkaline phosphatase readout) in both an agonist mode in the presence of a compound of the present invention alone, and in an antagonist mode in which the ability of a compound of the present invention to block estradiol stimulation of growth is measured.
Ishikawa human endometrial tumor cells are maintained in MEM (minimum essential medium, with Earle's salts and L-Glutamine, Gibco BRL, Gaithersburg, Md.), supplemented with 10% fetal bovine serum (FBS) (V/V), (Gibco BRL). One day prior to assay, growth media is changed to assay medium, DMEM/F-12 (3:1) (Dulbecco's Modified Eagle Medium: Nutrient Mixture F-12, 3:1 Mixture, phenol red-free, Gibco BRL) supplemented with 5% dextran coated charcoal stripped fetal bovine serum (DCC-FBS) (Hyclone, Logen, Utah), L-Glutamine (2 mM), MEM sodium pyruvate (1 mM), HEPES (N-[2-hydroxyethyl]piperazine-N′-[2-ethanesulfonic acid] 2 mM) all from Gibco BRL). After an overnight incubation, Ishikawa cells are rinsed with Dulbecco's Phosphate Buffered Saline (1×) (D-PBS) without Ca^+2 and Mg^+2 (Gibco BRL), and trypsinized by a 3 minute incubation with 0.25% Trypsin/EDTA, phenol red-free (Gibco BRL). Cells are resuspended in assay medium and adjusted to 250,000 cells/mL. Approximately 25,000 cells in a 100 μl media are added to flat-bottom 96 wells microculture plates (Costar 3596) and incubated at 37° C. in a 5% CO2 humidified incubator for 24 hours. The next day, serial dilutions of compounds are prepared in assay medium (at 6 times the final concentration in the assay). The assay is run in dual mode, agonist and antagonist modes.
For the agonist mode, plates receive 25 μl/well of assay medium followed by 25 μl/well of a diluted compound of the present invention (at 6× the final concentrations). For the antagonist mode, plates receive 25 μl/well of 6 nM E2 (β-Estradiol, Sigma, St. Louis, Mo.) followed by 25 μl/well of a diluted compound of the present invention (at 6× the final concentrations). After an additional 48-hour incubation at 37° C. in a 5% CO2 humidified incubator, media is aspirated from wells and 100 μl fresh assay medium is added to each microculture. Serial dilutions of compounds are prepared and added to the cells as described above. After an additional 72 hour incubation at 37° C. in a 5% CO2 humidified incubator, the assay is quenched by removing media and rinsing plates twice in Dulbecco's Phosphate Buffered Saline (1×) (D-PBS) (Gibco BRL). The plates are dried for 5 minutes and frozen at −70° C. for at least 1 hour. The plates are then removed from the freezer and allowed to thaw at room temperature. To each well, 100 μl of 1-Step™ PNPP (Pierce Chemical Company, Rockford, Ill.) is added. After a 20-minute incubation, plates are read on a spectophotometer at 405 nm.
The data is fitted to a linear interpolation to derive EC50 (for agonist mode) or IC50 (for antagonist mode) values. For the antagonist mode, a % efficacy for each compound is calculated versus E2 (1 nM) alone. For the agonist mode, a % efficacy for each compound is calculated versus the response to tamoxifen.

[2] = tested on: estrogen-induced response; assay: 3-Day Rat Uterus Antagonist Assay; type: in vivo; settings: immature female rats, oral, 3 days, with E2 0.1 mg/kg; for inhibition of the estrogen-induced response (uterine weight/body weight ratio): administered at 0.01, 0.1 and 1.0 mg/kg
Source text: 3-Day Rat Uterus Antagonist Assay: This model for uterine antagonism utilizes immature (3 week old) female rats that are highly sensitive to estrogenic stimulation of the uterus given that their circulating estrogen levels are prepubertal. The uteri from immature rats are fully responsive to exogenous estrogen, yet are quiescent in the absence of exogenous estrogen. Administration of exogenous estrogen to immature rats produces a reliable elevation of uterine weight, which can be used to study uterine antagonist effects. The rats are treated with both estradiol and 4 different concentrations of a compound of the present invention for 3 days and then uterine wet weights are measured.
Nineteen to twenty-one day old (or 45-50 g) female rats are orally treated with E2 (0.1 mg/kg, a maximal stimulatory estrogenic stimulus for reliably increasing uterine weight) and 10, 1.0, 0.1 and 0.01 mg/kg test compound for 3 days, 6 rats per group. Test compounds are dissolved in 20% β-hydroxycyclodextrin and administered by oral gavage in a volume of 0.2 mL daily (15 min. prior to the ethynyl estradiol gavage). A vehicle control, E2 alone and E2+raloxifene are also done as controls. The animals are fasted overnight following the final dose. On the following morning, the animals are weighed, then euthanized (by carbon dioxide asphyxiation) and the uteri rapidly collected (via a mid-line ventral incision) and weighed.
Uterine weight/body weight ratios (UWR) are calculated for each animal. The percent inhibition of the estrogen-induced response is then calculated by the following formula: percent inhibition=100×(UWRestrogen−UWRtest compound/UWRestrogen−UWRcontrol). ED50 values are derived from a semi-log regression analysis of the linear aspect of the dose response curve. Both the UWR data and the percent inhibition data are statistically analyzed by one way analysis of variance (ANOVA) with post-hoc testing by Fisher's PLSD when indicated by a p≦0.05. Statistical analyses are performed using the Statview® 4.0 software package.

[3] = 10-Day Rat Hormone (Ovarian Stimulation) Screen; type: in vivo; settings: mature F344 female rats, oral gavage 10 days, serum about 2 hours after 10th dose, RIA
Method: 10-Day Rat Hormone (Ovarian Stimulation) Screen: An initial, first screen for ovarian toxicity is conducted using a 10-day rat hormone study to measure estradiol and luteinizing hormone levels after compound administration. This screen is conducted by administering compound by oral gavage for 10 days to mature (9-10 week old) F344 female rats. Trunk blood is collected by rapid decapitation for evaluation of LH and estradiol levels approximately 2 hours after the 10th dose. Serum, obtained by centrifugation, is removed and stored frozen below −60° C. until assayed. Serum levels of LH and estradiol are measured using radioimmunoassay (RIA) methods.
Rat LH primary antibody and reference preparations (rat LH:RP-3) are obtained from Dr. A. F. Parlow, Director, Pituitary Hormones and Antisera Center, Harbor-UCLA Medical Center, Torrance, Calif. The LH assay upper limits of detection are 30 ng/mL and the lower limits of detection are 0.1 ng/mL for the 100 μl samples.
E2 Clinical Assays. DiaSorin s.r.l., Saluggia (Vercelli), Italy. The upper limit of detection is 1000 pg/mL and the lower limit of detection is 5 pg/mL.

CS(=O)(=O)c1ccc2c(c1)OC(c1ccc(OCCN3CCCCC3)cc1)c1c-2ccc2cc(O)ccc12 (racemic) [Example 3, 8-Methanesulfonyl-5-[4-(2-piperidin-1-yl-ethoxy)-phenyl]-5H-6-oxa-chrysen-2-ol, mono-Hydrochloride salt]
stimulation compared with tamoxifen ([1]; agonist mode): less stimulatory than tamoxifen
% antagonism [2]: 81%
ED50 [2]: 0.17 mpk
inhibition of the estrogen-induced response (uterine weight/body weight ratio) [2]: inhibit the estrogen-induced response
circulating LH levels [3]: did not significantly elevate
circulating estradiol levels [3]: did not significantly elevate

CSc1ccc2c(c1)OC(c1ccc(OCCN3CCCCC3)cc1)c1c-2ccc2cc(O)ccc12.Cl (centres unmarked) [Example 1, 8-Methylsulfanyl-5-[4-(2-piperidin-1-yl-ethoxy)-phenyl-5H-6-oxa-chrysen-2-ol hydrochloride]
Emax ([1]; Homo sapiens, Ishikawa, agonist mode, % efficacy versus the response to tamoxifen, read-out: relative % efficacy): 26%
IC50 ([1]; Homo sapiens, Ishikawa, antagonist mode, block of estradiol stimulation): 45 nM
Emax ([1]; Homo sapiens, Ishikawa, antagonist mode, versus E2 (1 nM) alone, read-out: % efficacy): 92%

CSc1ccc2c(c1)OC(c1ccc(OCCN3CCCCC3)cc1)c1c-2ccc2cc(O)ccc12.Cl (centres unmarked) [Example 1]
stimulation compared with tamoxifen ([1]; agonist mode): less stimulatory than tamoxifen
% antagonism [2]: 69%
ED50 [2]: 0.22 mpk
inhibition of the estrogen-induced response (uterine weight/body weight ratio) [2]: inhibit the estrogen-induced response

CNS(=O)(=O)c1ccc2c(c1)OC(c1ccc(OCCN3CCCCC3)cc1)c1c-2ccc2cc(O)ccc12.Cl (centres unmarked) [Example 5, 8-N-methyl sulfonamide-5-[4-(2-piperidin-1-yl-ethoxy)-phenyl]-5H-6-oxacbrysen-2-ol]
stimulation compared with tamoxifen ([1]; agonist mode): less stimulatory than tamoxifen

CCS(=O)(=O)c1ccc2c(c1)OC(c1ccc(OCCN3CCCCC3)cc1)c1c-2ccc2cc(O)ccc12.Cl (centres unmarked) [Example 7, 8-Ethanesulfonyl-5-[4-(2-piperidin-1-yl-ethoxy)-phenyl]-5H-6-oxa-chrysen-2-ol hydrochloride salt]
stimulation compared with tamoxifen ([1]; agonist mode): less stimulatory than tamoxifen

CNS(=O)(=O)c1ccc2c(c1)-c1ccc3cc(O)ccc3c1C(c1ccc(OCCN3CCCCC3)cc1)O2.Cl (centres unmarked) [Example 9, 2-Hydroxy-5-[4-(2-piperidin-1-yl-ethoxy)-phenyl]-5H-6-oxa-chrysen-9-sulfonic acid methylamide hydrochloride salt]
stimulation compared with tamoxifen ([1]; agonist mode): less stimulatory than tamoxifen

CS(=O)(=O)c1ccc2c(c1)-c1ccc3cc(O)ccc3c1C(c1ccc(OCCN3CCCCC3)cc1)O2.Cl (centres unmarked) [Example 10, 9-Methanesulfonyl-5-[4-(2-piperidin-1-yl-ethoxy)-phenyl]-5H-6-oxa-chrysen-2-ol hydrochloride salt]
stimulation compared with tamoxifen ([1]; agonist mode): less stimulatory than tamoxifen
